“And” between values parts separate entries of the source, which are not always exact repeats. Equal entries are not always repeated.
Biological target: T1, Parkin ligase (Homo sapiens, UniProt O60260)
T1 construct: Enzyme: Parkin-His tagged 203 μM (10.5 mg/ml)
T1 sequence (O60260 1-465): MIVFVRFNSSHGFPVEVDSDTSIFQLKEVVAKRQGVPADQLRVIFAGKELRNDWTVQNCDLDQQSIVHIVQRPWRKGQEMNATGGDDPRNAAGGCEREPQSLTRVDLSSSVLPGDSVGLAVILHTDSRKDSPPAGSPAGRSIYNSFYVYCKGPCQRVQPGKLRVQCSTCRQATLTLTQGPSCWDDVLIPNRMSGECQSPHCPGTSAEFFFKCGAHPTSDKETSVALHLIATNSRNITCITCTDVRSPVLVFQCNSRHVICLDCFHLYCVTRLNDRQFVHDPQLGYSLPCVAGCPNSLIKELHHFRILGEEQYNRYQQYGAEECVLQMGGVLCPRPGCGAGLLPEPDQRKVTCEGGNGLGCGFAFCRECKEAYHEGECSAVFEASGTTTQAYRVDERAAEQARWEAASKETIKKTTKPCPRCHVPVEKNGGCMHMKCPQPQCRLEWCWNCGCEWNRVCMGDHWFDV
Experiment: Activity-based probe assay using an ubiquitin vinyl sulfone probe (TR-FRET)
Format: biochemical
Settings: activation of heat activated Parkin, HA-Ub-VS probe; read-out: Probe Assay EC50 (μM) [Example 2]
Procedure: An Ubiquitin vinyl sulfone probe can be used that irreversibly binds to the active site cysteine of Parkin ligase. Covalent attachment of the probe to the Parkin can be monitored by TR-FRET. Candidate activator compounds can be identified by increasing the activity of Parkin ligase due to an increase in TR-FRET signal. Screening for activating compounds can be distinguished from the controls as follows:
100% activation signal=Heat activated Parkin+100 nM control activator in DMSO. 0% activation signal=Heat activated Parkin+DMSO only. Parkin activators can be identified by an increase of the 0% activation signal TR-FRET signal.
• Assay Plate: White 384 well plate (Corning 3572) • Enzyme: Parkin-His tagged 203 μM (10.5 mg/ml) • Probe: Ubiquitin vinyl-sulfone (HA-Ub-VS Boston Biochem U-212) • DMSO: DMSO (Sigma cat # D4540-100ML) • Reaction Buffer: 50 mM HEPES (pH 8.5), 150 mM NaCl, 0.01% Tween 20, 0.1% BSA • Detection Buffer: 50 mM HEPES (pH 8.5), 150 mM NaCl, 0.01% Tween 20, 0.1% BSA, 800 mM KF • Detection Reagent A: 2.6 nM Anti-6HIS-Eu cryptate and 40 nM Anti-HA-XL665 in detection buffer • Eu cryptate: Anti-6HIS-Eu cryptate (CisBio 61HISKLA) • XL665: Anti-HA-XL665 (CisBio 610HAXLA) Enzyme Reaction (15 min Pre Incubation Parkin with Activator Only) • Parkin: 40 nM • HA-Ub-VS Probe: 70 nM • Activator/DMSO: 2× Activator/2% DMSO • Reaction time: 60 minutes • Temperature: 22° C. • Total volume: 10 μl reaction
• Take 10 μl of Enzyme Reaction above and add 10 μl detection Reagent A under the following conditions: • Reaction time: 60 minutes • Temperature: 22° C. • Total volume: 20 μl
Assay procedure (Using HP D-300 compound dispenser and Bravo for the operation):
1) Heat activate Parkin in reaction buffer (500 μl/1.5 ml tube: Eppendorf Thermomixer 5 minutes, 400 rpm at 58° C. and put on ice until needed). 2) Load assay plate wells with 4.8 μl 84.5 nM Parkin in reaction buffer by use of Bravo. 3) Deliver 0.2 μl 200× activator candidates in DMSO by use of HP D-300 compound dispenser. Highest 200× concentration=20 μm and then twofold dilutions. 4) Spin 1000 rpm, 2 minutes, at room temp. 5) Incubate plate for 15 minutes at room temp. 6) Add 5 μl 140 nM HA-Ub-VS Probe in reaction buffer by use of Bravo. 7) Spin 1000 rpm, 2 minutes, at room temp. 8) Incubate plate for 60 minutes at room temp. 9) Add 10 μl 2.6 nM Anti-6HIS-Eu cryptate and 40 nM Anti-HA-XL665 in detection buffer. 10) Spin 1000 rpm, 2 minutes, at room temp. 11) Incubate plate for 60 minutes at room temp. 12) Read plates on Perkin Elmer Envision instrument with the following parameters:
LANCE dual laser protocol loaded into the Envision® software
Top Mirror: LANCE/DELFIA Duel/Bias (Bar code 446) Emission Filter: APC 665 EM (Bar code 205) 2nd Emission Filter: Europium 615 EM (Bar code 203) Read […] (channel 1) and 615 nm (channel 2) wavelengths on Envision®
Data Analysis: The Data can be read in CSV files. There are two tables in those CSV files, which are the values of 655 nm (channel 1) and 615 nm (channel 2) wavelengths respectively. The data is converted to an HTRF Ratio=(Channel 1/Channel 2)*10,000
The average of all the 0 uM controls (DMSO only)=BKGD (Background—0% activation). Subtract BKGD from each HTRF Ratio value=HTRF-BKGD. The average of all the […] 100 nM control activator in DMSO controls=Max (100% activation). The following equation is then used to calculate % Activation for each well/candidate as follows: % Activation=(HTRF−BKGD/Max)*100.
Graphpad Prisim was used with Transform X values: X=Log(X) and nonlinear regression (dose-response-stimulation): Log(agonist) vs Response—variable slope (four parameters) with constrains set to Bottom=0 and Top=100.

Row | SMILES | EC50
1 | Cc1nn2c(S)c3c(nc2c1-c1ccccc1)CCCC3 [Compound K] | 3.3 µM and 3.6 µM
2 | Cc1nc2c(C(F)(F)F)c(C)nn2c(O)c1Cc1ccccc1 [JJ] | > 100 µM
3 | Cc1cc(S)n2ncc(-c3ccccc3)c2n1 [Compound C] | 75.3 µM
4 | Cc1nc2c(C#N)c(C)nn2c(O)c1Cc1ccccc1 [Compound GG, 6-benzyl-7-hydroxy-2,5-dimethyl-pyrazolo-[1,5-a]pyrimidine-3-carbonitrile] | > 100 µM
5 | Oc1c(Cc2ccccc2)cnc2c(-c3ccccc3)cnn12 [Compound W, 6-benzyl-3-phenyl-pyrazolo[1,5-a]pyrimidin-7-ol] | > 100 µM
6 | Cc1nn2c(S)c(C)c(Cc3ccccc3)nc2c1-c1ccccc1 [ZZ] | 0.5 µM
7 | Cc1nc2c(-c3ccccc3)c(C)nn2cc1Cc1ccccc1 [QQ] | > 100 µM
8 | Cc1nc2c(-c3ccccc3)c(C)nn2c(S)c1Cc1ccccn1 [Compound BB, 2,5-dimethyl-3-phenyl-6-(2-pyridylmethyl)pyrazolo[1,5-a]pyrimidine-7-thiol] | 14.9 µM
9 | Cc1cc2nc(C)c(Cc3ccccc3)c(O)n2n1 [Q] | > 100 µM

Now from value to compound:

Row | EC50 | SMILES
10 | > 100 µM | Cc1nn2c(O)c3c(nc2c1-c1ccccc1)CCN(C)C3 [Compound K3]
11 | 6 µM | Cc1ccc(-c2cnn3c(S)c4c(nc23)CN(C)CC4)cc1 [Compound S3]
12 | > 100 µM | Cc1nn2c(O)c(CC(C)C)cnc2c1-c1ccccc1 [Compound I3]
13 | 4 µM | Cc1nn2c(S)c(CCc3ccccc3)cnc2c1-c1ccccc1 [Compound E3]

From patent US20210163489A1, “PYRAZOLOPYRIMIDINE DERIVATIVES AND THE COMPOSITIONS AND METHODS OF TREATMENT REGARDING THE SAME” (NysnoBio Ireland DAC, priority 2016, published 2021)
